Source: the supplement of paper PMC9663587

Key:
Paclitaxel = compound: CC(=O)O[C@H]1C(=O)[C@@]2(C)[C@H]([C@H](OC(=O)c3ccccc3)[C@]3(O)C[C@H](OC(=O)[C@H](O)[C@@H](NC(=O)c4ccccc4)c4ccccc4)C(C)=C1C3(C)C)[C@]1(OC(C)=O)CO[C@@H]1C[C@@H]2O [Paclitaxel]
Ipatasertib/GDC0068 = compound: CC(C)NC[C@@H](C(=O)N1CCN(c2ncnc3c2[C@H](C)C[C@H]3O)CC1)c1ccc(Cl)cc1 [Ipatasertib/GDC0068]
Luminespib/NVP-AUY922 = compound: CCNC(=O)c1noc(-c2cc(C(C)C)c(O)cc2O)c1-c1ccc(CN2CCOCC2)cc1 [Luminespib/NVP-AUY922]
BSJ-01-175 = compound: CN(C)C/C=C/C(=O)Nc1ccc(O[C@@H]2CCC[C@@H](Nc3ncc(Cl)c(-c4c[nH]c5ccccc45)n3)C2)cc1 [BSJ-01-175]
ABT-737 = compound: CN(C)CC[C@H](CSc1ccccc1)Nc1ccc(S(=O)(=O)NC(=O)c2ccc(N3CCN(Cc4ccccc4-c4ccc(Cl)cc4)CC3)cc2)cc1[N+](=O)[O-] [ABT-737]
Flavopiridol [1] = compound: T1, CN1CC[C@H](c2c(O)cc(O)c3c(=O)cc(-c4ccccc4Cl)oc23)[C@H](O)C1 [Flavopiridol]
Doxorubicin = compound: COc1cccc2c1C(=O)c1c(O)c3c(c(O)c1C2=O)C[C@@](O)(C(=O)CO)C[C@@H]3O[C@H]1C[C@H](N)[C@H](O)[C@H](C)O1 [Doxorubicin]
Taselisib/GDC0032 = compound: Cc1nc(-c2cn3c(n2)-c2ccc(-c4cnn(C(C)(C)C(N)=O)c4)cc2OCC3)n(C(C)C)n1 [Taselisib/GDC0032]
Olaparib/AZD2281 = compound: O=C(c1cc(Cc2n[nH]c(=O)c3ccccc23)ccc1F)N1CCN(C(=O)C2CC2)CC1 [Olaparib/AZD2281]
YKL-5-124 = compound: C=CC(=O)Nc1ccc(C(=O)Nc2[nH]nc3c2CN(C(=O)N[C@H](CN(C)C)c2ccccc2)C3(C)C)cc1 [YKL-5-124]; assay: GR value, 72 h; higher = faster growth (1 = untreated, <0 = killing);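 note: breast cancer and non-malignant breast epithelial lines, nine half-log doses, viable cells counted by Hoechst and LIVE/DEAD dye imaging versus time-zero plates and DMSO controls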
BSJ-03-123 = compound: CC(=O)c1c(C)c2cnc(Nc3ccc(N4CCN(CCOCCOCCOCCNC(=O)COc5cccc6c5C(=O)N(C5CCC(=O)NC5=O)C6=O)CC4)cn3)nc2n(C2CCCC2)c1=O [BSJ-03-123]; assay: as above
[2] = compound: CC(=O)c1c(C)c2cnc(Nc3ccc(N4CCNCC4)cn3)nc2n(C2CCCC2)c1=O; assay: as above
[3] = compound: CCN1CCN(Cc2ccc(Nc3ncc(F)c(-c4cc(F)c5nc(C)n(C(C)C)c5c4)n3)nc2)CC1; assay: as above
[4] = compound: CCc1cnn2c(NCc3ccc[n+]([O-])c3)cc(N3CCCC[C@H]3CCO)nc12; assay: as above
LEE011/Ribociclib = compound: CN(C)C(=O)c1cc2cnc(Nc3ccc(N4CCNCC4)cn3)nc2n1C1CCCC1 [LEE011/Ribociclib]; assay: as above
THZ531 = compound: CN(C)C/C=C/C(=O)Nc1ccc(C(=O)N2CCC[C@@H](Nc3ncc(Cl)c(-c4c[nH]c5ccccc45)n3)C2)cc1 [THZ531]; assay: as above
Flavopiridol [5] = compound: T1, Flavopiridol; assay: as above
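Throughout, for GR50, 72 h: breast cancer and non-malignant breast epithelial cell lines, Deep Dye Drop or Dye Drop imaging, nine half-log doses, GR normalized to time-zero plates and DMSO-only controls.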

SUM185PE
GR50, 72 h (Paclitaxel): 0.00463 µM | GR50, 72 h (Ipatasertib/GDC0068): 6.34 µM | GR50, 72 h (Luminespib/NVP-AUY922): 0.00341 µM | GR50, 72 h (BSJ-01-175): 0.103 µM | GR50, 72 h (ABT-737): 0.927 µM | GR50, 72 h (Flavopiridol [1]): 0.149 µM | GR50, 72 h (Doxorubicin): > 3.16 µM | GR50, 72 h (Taselisib/GDC0032): 0.00177 µM | GR50, 72 h (Olaparib/AZD2281): > 10 µM | GR value (YKL-5-124; 0.001 µM): 0.7 GR | GR value (YKL-5-124; 0.003162 µM): 0.648 GR | GR value (YKL-5-124; 0.01 µM): 0.517 GR | GR value (YKL-5-124; 0.03162 µM): 0.469 GR | GR value (YKL-5-124; 0.1 µM): 0.434 GR | GR value (YKL-5-124; 0.3162 µM): 0.474 GR | GR value (YKL-5-124; 1 µM): 0.496 GR | GR value (YKL-5-124; 3.162 µM): 0.231 GR | GR value (YKL-5-124; 10 µM): -0.008 GR | GR value (BSJ-03-123; 0.001 µM): 0.901 GR | GR value (BSJ-03-123; 0.003162 µM): 0.946 GR | GR value (BSJ-03-123; 0.01 µM): 0.906 GR | GR value (BSJ-03-123; 0.03162 µM): 0.922 GR | GR value (BSJ-03-123; 0.1 µM): 0.819 GR | GR value (BSJ-03-123; 0.3162 µM): 0.776 GR | GR value (BSJ-03-123; 1 µM): 0.799 GR | GR value (BSJ-03-123; 3.162 µM): 0.758 GR | GR value (BSJ-03-123; 10 µM): 0.649 GR | GR value ([2]; 0.0003162 µM): 1 GR | GR value ([2]; 0.001 µM): 1.03 GR | GR value ([2]; 0.003162 µM): 0.956 GR | GR value ([2]; 0.01 µM): 0.996 GR | GR value ([2]; 0.03162 µM): 0.96 GR | GR value ([2]; 0.1 µM): 0.923 GR | GR value ([2]; 0.3162 µM): 0.781 GR | GR value ([2]; 1 µM): 0.86 GR | GR value ([2]; 3.162 µM): 0.754 GR | GR value ([3]; 0.001 µM): 0.941 GR | GR value ([3]; 0.003162 µM): 0.871 GR | GR value ([3]; 0.01 µM): 0.877 GR | GR value ([3]; 0.03162 µM): 0.874 GR | GR value ([3]; 0.1 µM): 0.742 GR | GR value ([3]; 0.3162 µM): 0.691 GR | GR value ([3]; 1 µM): 0.613 GR | GR value ([3]; 3.162 µM): 0.595 GR | GR value ([3]; 10 µM): 0.5 GR | GR value ([4]; 0.0001 µM): 1.06 GR | GR value ([4]; 0.0003162 µM): 1.2 GR | GR value ([4]; 0.001 µM): 1.04 GR | GR value ([4]; 0.003162 µM): 0.999 GR | GR value ([4]; 0.01 µM): 0.955 GR | GR value ([4]; 0.03162 µM): 0.387 GR | GR value ([4]; 0.1 µM): 0.227 GR | GR value ([4]; 0.3162 µM): 0.203 GR | GR value ([4]; 1 µM): 0.171 GR | GR value (LEE011/Ribociclib; 0.001 µM): 0.867 GR | GR value (LEE011/Ribociclib; 0.003162 µM): 1.04 GR | GR value (LEE011/Ribociclib; 0.01 µM): 0.798 GR | GR value (LEE011/Ribociclib; 0.03162 µM): 0.942 GR | GR value (LEE011/Ribociclib; 0.1 µM): 1 GR | GR value (LEE011/Ribociclib; 0.3162 µM): 0.948 GR | GR value (LEE011/Ribociclib; 1 µM): 0.913 GR | GR value (LEE011/Ribociclib; 3.162 µM): 0.832 GR | GR value (LEE011/Ribociclib; 10 µM): 0.846 GR | GR value (THZ531; 0.0001 µM): 1.06 GR | GR value (THZ531; 0.0003162 µM): 1 GR | GR value (THZ531; 0.001 µM): 1.02 GR | GR value (THZ531; 0.003162 µM): 1.02 GR | GR value (THZ531; 0.01 µM): 1.03 GR | GR value (THZ531; 0.03162 µM): 1.06 GR | GR value (THZ531; 0.1 µM): 0.851 GR | GR value (THZ531; 0.3162 µM): -0.187 GR | GR value (THZ531; 1 µM): 0.19 GR | GR value (Flavopiridol [5]; 0.0001 µM): 1 GR | GR value (Flavopiridol [5]; 0.0003162 µM): 0.883 GR | GR value (Flavopiridol [5]; 0.001 µM): 0.776 GR | GR value (Flavopiridol [5]; 0.003162 µM): 0.933 GR | GR value (Flavopiridol [5]; 0.01 µM): 0.845 GR | GR value (Flavopiridol [5]; 0.03162 µM): 0.58 GR | GR value (Flavopiridol [5]; 0.1 µM): 0.632 GR | GR value (Flavopiridol [5]; 0.3162 µM): 0.458 GR | GR value (Flavopiridol [5]; 1 µM): 0.132 GR
